Measured values reported in patent US5061711A, “Method of curing liver diseases by using pyrrolo quinoline quinone triesters and novel pyrrolo quinoline quinone triesters” (Mitsubishi Gas Chemical Company, Inc., priority 1989, dated 1991).

Assays:
[1] = bovine, not told, 960 min
[2] = system: D-galactosamine-induced liver diseases; assay: Pharmacological effect (2) on D-galactosamine-induced liver diseases; assay type: in vivo, SD rats; settings: D-galactosamine 1 g/kg rat i.p., 23 hours, average of five rats; for Total bilirubin in serum: D-galactosamine alone 1.4; for GPT in serum: D-galactosamine alone 1560; for GOT in serum: D-galactosamine alone 2542
Protocol: Pharmacological effect (2) of PQQ triesters on D-galactosamine-induced liver diseases:
Forty SD rats (male, 7 weeks old, body weight: about 260 g; supplied by Japan Charles River Co.) were divided to eight groups (A-H) each consisting of five rats. All rats were fasted for 18 hours and 1.3 ml of a solution containing 1 mg/ml of PQQ trimethyl ester was orally administered to the rats of group C, 1.3 ml of a solution containing 2 mg/ml of PQQ trimethyl ester was orally administered to the rats of group D, 1.3 ml of a solution containing 3 mg/ml of PQQ trimethyl ester was orally administered to the rats of group E, 1.3 ml of a solution containing 1 mg/ml of PQQ triallyl ester was orally administered to the rats of group F, 1.3 ml of a solution containing 2 mg/ml of PQQ triallyl ester was orally administered to the rats of group G, and 1.3 ml of a solution containing 3 mg/ml of PQQ triallyl ester was orally administered to the rats of group H and furthermore, after lapse of 40 minutes, the same PQQ triesters in the same doses as above were orally administered to respective rats. In these cases, the PQQ triesters were suspended in physiological saline containing 1% Tween 80 and administered to the rats. 1.3 ml of physiological saline was orally administered to the rats of group B in place of PQQ triesters. Furthermore, after lapse of 20 minutes, 1.3 ml of a solution of d-galactosamine in 10 ml of physiological saline was intraperitoneally administered to the rats of groups B-H. Neither PQQ triesters nor D-galactosamine were administered to the rats of group A.
After 23 hours from administration of D-galactosamine, blood was collected from abdominal main artery and serum was obtained by centrifugation therefrom.
GPT, GOT and amount of total bilirubin in the serum were measured by clinical examination reagent (trademark: FUJI DRYCHEMSLIDE manufactured by Fuji Photo Film Co., Ltd.). The results are shown in Table 8 by average value of five rats.

mice = assay: Kidney toxicity determined by urine test; assay type: in vivo, mouse
Protocol: (2) Kidney toxicity determined by urine test
PQQ.2Na, PQQ trimethyl ester and PQQ triallyl ester were intraperitoneally administered to mice and they were bred in the same manner as in the above acute toxicity test. The doses per kg of body weight of mouse were 20, 40 and 80 mg for PQQ.2Na and 20, 40, 80, 160 and 200 mg for PQQ triesters. Urine was collected every day and glucose concentration was examined using clinical examination reagent (trademark: […] II manufactured by Miles.Sankyo Co.).

[3] = system: carbon tetrachloride (CCl4)-induced liver diseases; assay: Pharmacological activity (1) on carbon tetrachloride (CCl4)-induced liver diseases; assay type: in vivo, SD rats; settings: i.p. 5 mg/kg rat twice, CCl4 1 ml/kg rat, 24 hours, average of five rats
Protocol: Pharmacological activity (1) of PQQ triesters on carbon tetrachloride (CCl4)-induced liver diseases:
Twenty SD rats (male, 7 weeks old, body weight: about 220 g; supplied by Japan Charles River Co.) were divided to four groups (A-D) each consisting of five rats. All rats were fasted for 16 hours and 1.1 ml of a solution containing 1 mg/ml of PQQ trimethyl ester was intraperitoneally administered to the rats of group C and 1.1 ml of a solution containing 1 mg/ml of PQQ triallyl ester was intraperitoneally administered to the rats of group D and after lapse of 40 minutes, the same PQQ triesters in the same dose as above was intraperitoneally administered, respectively. For administration, the PQQ triesters were suspended in physiological saline containing 1 % Tween 80, 1.1 ml of physiological saline was intraperitoneally administered to the rats of group B in place of PQQ triesters. Furthermore, after 20 minutes, 2.2 ml of 10 vol% carbon tetrachloride (solution in olive oil) was administered to stomach of the rats of groups B-D. Neither PQQ triesters nor carbon tetrachloride were administered to the rats of group A.
After 24 hours from administration of carbon tetrachloride, blood was collected from abdominal main artery and serum was obtained by centrifugation therefrom.
GPT, GOT and amount of total bilirubin in the serum were measured by clinical examination reagent (trademark: FUJI DRYCHEMSLIDE manufactured by Fuji Photo Film Co., Ltd.). The results are shown in Table 5 by average value of five rats.

COC(=O)c1cc(C(=O)OC)c2c(n1)C(=O)C(=O)c1cc(C(=O)OC)[nH]c1-2 [PQQ trimethyl ester]
Membrane permeation constant [1]: 1.41 ± 0.48 10^-7 cm^2 · sec^-1 | membrane permeation constant relative to that of PQQ.2Na [1]: about 2 times | Total bilirubin in serum ([2]; oral 5 mg/kg rat twice): 0.8 mg/dL | GPT in serum ([2]; oral 5 mg/kg rat twice): 431 U/l | GOT in serum ([2]; oral 5 mg/kg rat twice): 926 U/l | Total bilirubin in serum ([2]; oral 10 mg/kg rat twice): 0.7 mg/dL | GPT in serum ([2]; oral 10 mg/kg rat twice): 330 U/l | GOT in serum ([2]; oral 10 mg/kg rat twice): 540 U/l | Total bilirubin in serum ([2]; oral 15 mg/kg rat twice): 1.0 mg/dL | GPT in serum ([2]; oral 15 mg/kg rat twice): 701 U/l | GOT in serum ([2]; oral 15 mg/kg rat twice): 1260 U/l | glucose in urine (mice; i.p. 20 mg/kg, day 1): - | glucose in urine (mice; i.p. 20 mg/kg, day 2): - | glucose in urine (mice; i.p. 20 mg/kg, day 3): - | glucose in urine (mice; i.p. 20 mg/kg, day 6): - | glucose in urine (mice; i.p. 20 mg/kg, day 7): - | glucose in urine (mice; i.p. 20 mg/kg, day 8): - | glucose in urine (mice; i.p. 20 mg/kg, day 10): - | glucose in urine (mice; i.p. 20 mg/kg, day 13): - | glucose in urine (mice; i.p. 20 mg/kg, day 14): - | glucose in urine (mice; i.p. 40 mg/kg, day 1): - | glucose in urine (mice; i.p. 40 mg/kg, day 2): - | glucose in urine (mice; i.p. 40 mg/kg, day 3): - | glucose in urine (mice; i.p. 40 mg/kg, day 6): - | glucose in urine (mice; i.p. 40 mg/kg, day 7): - | glucose in urine (mice; i.p. 40 mg/kg, day 8): - | glucose in urine (mice; i.p. 40 mg/kg, day 10): - | glucose in urine (mice; i.p. 40 mg/kg, day 13): - | glucose in urine (mice; i.p. 40 mg/kg, day 14): - | glucose in urine (mice; i.p. 80 mg/kg, day 1): - | glucose in urine (mice; i.p. 80 mg/kg, day 2): - | glucose in urine (mice; i.p. 80 mg/kg, day 3): - | glucose in urine (mice; i.p. 80 mg/kg, day 6): - | glucose in urine (mice; i.p. 80 mg/kg, day 7): - | glucose in urine (mice; i.p. 80 mg/kg, day 8): - | glucose in urine (mice; i.p. 80 mg/kg, day 10): - | glucose in urine (mice; i.p. 80 mg/kg, day 13): - | glucose in urine (mice; i.p. 80 mg/kg, day 14): - | glucose in urine (mice; i.p. 160 mg/kg, day 1): - | glucose in urine (mice; i.p. 160 mg/kg, day 2): - | glucose in urine (mice; i.p. 160 mg/kg, day 3): - | glucose in urine (mice; i.p. 160 mg/kg, day 6): - | glucose in urine (mice; i.p. 160 mg/kg, day 7): - | glucose in urine (mice; i.p. 160 mg/kg, day 8): - | glucose in urine (mice; i.p. 160 mg/kg, day 10): - | glucose in urine (mice; i.p. 160 mg/kg, day 13): - | glucose in urine (mice; i.p. 160 mg/kg, day 14): - | glucose in urine (mice; i.p. 200 mg/kg, day 1): - | glucose in urine (mice; i.p. 200 mg/kg, day 2): - | glucose in urine (mice; i.p. 200 mg/kg, day 3): - | glucose in urine (mice; i.p. 200 mg/kg, day 6): - | glucose in urine (mice; i.p. 200 mg/kg, day 7): - | glucose in urine (mice; i.p. 200 mg/kg, day 8): - | glucose in urine (mice; i.p. 200 mg/kg, day 10): - | glucose in urine (mice; i.p. 200 mg/kg, day 13): - | glucose in urine (mice; i.p. 200 mg/kg, day 14): - | glucose in urine (in words) (mice; i.p., all doses): no glucose was detected | Total bilirubin in serum ([3]; CCl4 alone 1.2): 0.7 mg/dL | GPT in serum ([3]; CCl4 alone 818): 505 U/l | GOT in serum ([3]; CCl4 alone 3308): 2193 U/l
